System: Mild to Moderate Osteoarthritis of the Knee
Assay: Phase 2 study: WOMAC difficulty performing daily activities subscale score
Type: in vivo, human
Conditions: for Change of WOMAC Difficulty performing daily activities score from baseline (±SEM) / Percentage of improvement from baseline, WOMAC Difficulty performing daily activities score: all patients taken as active; for WOMAC Difficulty Performing Daily Activities Subscale Score, Avg.: Avg. of all patients; for WOMAC Difficulty Performing Daily Activities Subscale Score, Avg. / WOMAC Difficulty Performing Daily Activities Subscale Score: blinded; for WOMAC Difficulty Performing Daily Activities Subscale Score: individual patient
Excerpt: This is a Phase 2, multicenter, randomized, double blind (within dose), placebo controlled, parallel group, proof of concept, and dose range finding study to evaluate the efficacy, safety, and PK of 2-(diethylamino)ethyl 2-(4-isobutylphenyl)propionate hydrochloride spray in adult subjects with clinically symptomatic mild to moderate OA of the knee. For subjects with bilateral knee pain, both knees will be treated, but the most symptomatic knee (i.e., the most painful knee as measured by the Western Ontario and McMaster University Osteoarthritis Index [WOMAC® 3.1] pain subscale score at Screening) will be designated as the target knee for efficacy analyses. For subjects with unilateral knee pain, only the symptomatic (target) knee will be treated.
After a Screening Period of up to 3 weeks and radiographic evaluation of the target knee joint space, a subject will be randomly assigned to 1 of 3 treatment groups in a 1:1:1 ratio with a 2:1 ratio of active:placebo within each treatment group (ie, 2 subjects to active treatment and 1 subject to placebo): • Group A: 8.75 mg 2-(diethylamino)ethyl 2-(4-isobutylphenyl)propionate/knee (2 sprays/knee, one spray to the medial surface and one spray to the lateral surface of the knee), twice daily (BID, approximately every 12 hours; n=50) or placebo (2 sprays/knee), BID (approximately every 12 hours; n=25) for a total of 4 sprays per knee per day; • Group B: 17.5 mg 2-(diethylamino)ethyl 2-(4-isobutylphenyl)propionate/knee (4 sprays/knee, one spray to the medial surface and one spray to the lateral surface of the knee, and one spray to front and one spray to the back of the knee), BID (approximately every 12 hours; n=50) or placebo (4 sprays/knee), BID (approximately every 12 hours; n=25) for a total of 8 sprays per knee per day; • Group C: 35 mg 2-(diethylamino)ethyl 2-(4-isobutylphenyl)propionate/knee (8 sprays/knee, each spray is to be applied to a different non-overlapping area around the knee, and the areas are to be uniformly distributed around the knee), BID (approximately every 12 hours; n=50) or placebo (8 sprays/knee), BID (approximately every 12 hours; n=25) for a total of 16 sprays per knee per day.
The VAS version of the WOMAC will be used for the Primary and Secondary Efficacy Endpoints. Efficacy endpoints will be assessed at Screening and Baseline (Day 1) and at the Week 2, Week 4, Week 8, and Week 12/EOS visits.
3.9.2. Secondary Efficacy Endpoints: • 1. Change from Baseline in the WOMAC (VAS) pain subscale score for the target knee at 2, 4, and 8 weeks of treatment; • 2. Change from Baseline in the WOMAC (VAS) stiffness subscale scores for the target knee and WOMAC (VAS) functional ability subscale scores at 2, 4, 8, and 12 weeks of treatment; • 3. Change from Baseline in the overall WOMAC (VAS) score at 2, 4, 8, and 12 weeks of treatment.
The Secondary Efficacy Endpoints, change from Baseline in the WOMAC subscale scores for pain, stiffness, and functional ability, and overall WOMAC score at 2, 4, 8, and 12 weeks of treatment, will be analyzed using the same methods as for the Primary Efficacy Endpoint.
To determine this, we assumed that all patients received 2-(diethylamino)ethyl 2-(4-isobutylphenyl)propionate, active drug treatment (i.e. all patients who received 2-(diethylamino)ethyl 2-(4-isobutylphenyl)propionate or placebo treatment for 12 weeks or mixed up treatment during the 12-week treatment, as 2-(diethylamino)ethyl 2-(4-isobutylphenyl)propionate-treated). Based on this assumption, that is, to treat this trial as an open-label study and that all patients received active treatment, we conducted efficacy analysis using top-line efficacy datasets prepared by CRO and the re-analysis results are presented in the following tables (Tables 29-47). […] (William G. Bensen, Justus J. Fiechtner, James 1. McMillen, et. al. Treatment of Osteoarthritis with Celecoxib. Mayo Clin Proc, November 1999. Vol 74, 1095-1105.)

[1] = 35 mg/knee (BID), Week 8 (day 56)
[2] = 35 mg/knee (BID), Week 12 (day 84)
[3] = Middle Dose (4 spray/knee, 17.5 mg/knee) Cohort, Day 1
[4] = Middle Dose (4 spray/knee, 17.5 mg/knee) Cohort, Week 4

SMILES: CCN(CC)CCOC(=O)C(C)c1ccc(CC(C)C)cc1 (stereo not shown) [2-(diethylamino)ethyl 2-(4-isobutylphenyl)propionate]
- Percentage of improvement from baseline, WOMAC Difficulty performing daily activities score, adjusted by […] of the Testing Drug Amount [1]: −55.1%
- Change of WOMAC Difficulty performing daily activities score from baseline (±SEM) [1]: −18.4(±2.6) mm
- Percentage of improvement from baseline, WOMAC Difficulty performing daily activities score [1]: −32.1%
- Change of WOMAC Difficulty performing daily activities score from baseline (±SEM), adjusted by […] of the Testing Drug Amount [2]: −35.8(±4.8) mm
- Percentage of improvement from baseline, WOMAC Difficulty performing daily activities score, adjusted by […] of the Testing Drug Amount [2]: −62.4%
- Change of WOMAC Difficulty performing daily activities score from baseline (±SEM) [2]: −20.9(±2.8) mm
- Percentage of improvement from baseline, WOMAC Difficulty performing daily activities score [2]: −36.4%
- reduction of difficulty performing daily activities WOMAC from baseline to week 12 (5 patients on second batch active drug kits): 65.1-100%
- WOMAC Difficulty Performing Daily Activities Subscale Score, Avg. (35 mg/knee (8 spray/knee), Day 1): 57.4
- WOMAC Difficulty Performing Daily Activities Subscale Score, Avg. (35 mg/knee (8 spray/knee), Follow-up): 37.0
- WOMAC Difficulty Performing Daily Activities Subscale Score, Avg. (35 mg/knee (8 spray/knee), Week 2): 48.0
- WOMAC Difficulty Performing Daily Activities Subscale Score, Avg. (35 mg/knee (8 spray/knee), Week 4): 44.0
- WOMAC Difficulty Performing Daily Activities Subscale Score, Avg. (35 mg/knee (8 spray/knee), Week 8): 39.0
- WOMAC Difficulty Performing Daily Activities Subscale Score, Avg. (35 mg/knee (8 spray/knee), Week 12): 36.5
- WOMAC Difficulty Performing Daily Activities Subscale Score, Avg. [3]: 63.4
- WOMAC Difficulty Performing Daily Activities Subscale Score, Avg. (Middle Dose (4 spray/knee, 17.5 mg/knee) Cohort, Follow-up): 40.3
- WOMAC Difficulty Performing Daily Activities Subscale Score, Avg. (Middle Dose (4 spray/knee, 17.5 mg/knee) Cohort, Week 2): 48.1
- WOMAC Difficulty Performing Daily Activities Subscale Score, Avg. [4]: 42.3
- WOMAC Difficulty Performing Daily Activities Subscale Score, Avg. (Middle Dose (4 spray/knee, 17.5 mg/knee) Cohort, Week 8): 39.3
- WOMAC Difficulty Performing Daily Activities Subscale Score, Avg. (Middle Dose (4 spray/knee, 17.5 mg/knee) Cohort, Week 12): 36.5
- WOMAC Difficulty Performing Daily Activities Subscale, WOMAC VAS Score (Patient 1056, second batch active drug kits, Day 1): 39.6 mm
- WOMAC Difficulty Performing Daily Activities Subscale, WOMAC VAS Score (Patient 1056, second batch active drug kits, Follow Up): 11.6 mm
- WOMAC Difficulty Performing Daily Activities Subscale, WOMAC VAS Score (Patient 1056, second batch active drug kits, Week 2): 27.1 mm
- WOMAC Difficulty Performing Daily Activities Subscale, WOMAC VAS Score (Patient 1056, second batch active drug kits, Week 4): 24.4 mm
- WOMAC Difficulty Performing Daily Activities Subscale, WOMAC VAS Score (Patient 1056, second batch active drug kits, Week 8): 25.2 mm
- WOMAC Difficulty Performing Daily Activities Subscale, WOMAC VAS Score (Patient 1056, second batch active drug kits, Week 12): 18.1 mm
- WOMAC Difficulty Performing Daily Activities Subscale, WOMAC VAS Score (Patient 1064, second batch active drug kits, Day 1): 33.6 mm
- WOMAC Difficulty Performing Daily Activities Subscale, WOMAC VAS Score (Patient 1064, second batch active drug kits, Follow Up): 0.4 mm
- WOMAC Difficulty Performing Daily Activities Subscale, WOMAC VAS Score (Patient 1064, second batch active drug kits, Week 2): 24.4 mm
- WOMAC Difficulty Performing Daily Activities Subscale, WOMAC VAS Score (Patient 1064, second batch active drug kits, Week 4): 1.1 mm
- WOMAC Difficulty Performing Daily Activities Subscale, WOMAC VAS Score (Patient 1064, second batch active drug kits, Week 8): 0.5 mm
- WOMAC Difficulty Performing Daily Activities Subscale, WOMAC VAS Score (Patient 1064, second batch active drug kits, Week 12): 0.6 mm
- WOMAC Difficulty Performing Daily Activities Subscale, WOMAC VAS Score (Patient 1535, second batch active drug kits, Day 1): 51.6 mm
- WOMAC Difficulty Performing Daily Activities Subscale, WOMAC VAS Score (Patient 1535, second batch active drug kits, Follow Up): 0.2 mm
- WOMAC Difficulty Performing Daily Activities Subscale, WOMAC VAS Score (Patient 1535, second batch active drug kits, Week 2): 3.3 mm
- WOMAC Difficulty Performing Daily Activities Subscale, WOMAC VAS Score (Patient 1535, second batch active drug kits, Week 4): 2.8 mm
- WOMAC Difficulty Performing Daily Activities Subscale, WOMAC VAS Score (Patient 1535, second batch active drug kits, Week 8): 3.5 mm
- WOMAC Difficulty Performing Daily Activities Subscale, WOMAC VAS Score (Patient 1535, second batch active drug kits, Week 12): 0.2 mm
- WOMAC Difficulty Performing Daily Activities Subscale, WOMAC VAS Score (Patient 1539, second batch active drug kits, Day 1): 73.0 mm
- WOMAC Difficulty Performing Daily Activities Subscale, WOMAC VAS Score (Patient 1539, second batch active drug kits, Follow Up): 4.4 mm
- WOMAC Difficulty Performing Daily Activities Subscale, WOMAC VAS Score (Patient 1539, second batch active drug kits, Week 2): 47.8 mm
- WOMAC Difficulty Performing Daily Activities Subscale, WOMAC VAS Score (Patient 1539, second batch active drug kits, Week 4): 43 mm
- WOMAC Difficulty Performing Daily Activities Subscale, WOMAC VAS Score (Patient 1539, second batch active drug kits, Week 8): 5.5 mm
- WOMAC Difficulty Performing Daily Activities Subscale, WOMAC VAS Score (Patient 1539, second batch active drug kits, Week 12): 8.4 mm
- WOMAC Difficulty Performing Daily Activities Subscale, WOMAC VAS Score (Patient 9032, second batch active drug kits, Day 1): 16.4 mm
- WOMAC Difficulty Performing Daily Activities Subscale, WOMAC VAS Score (Patient 9032, second batch active drug kits, Follow Up): 2.8 mm
- WOMAC Difficulty Performing Daily Activities Subscale, WOMAC VAS Score (Patient 9032, second batch active drug kits, Week 2): 6.0 mm
- WOMAC Difficulty Performing Daily Activities Subscale, WOMAC VAS Score (Patient 9032, second batch active drug kits, Week 4): 7.1 mm
- WOMAC Difficulty Performing Daily Activities Subscale, WOMAC VAS Score (Patient 9032, second batch active drug kits, Week 8): 3.4 mm
- WOMAC Difficulty Performing Daily Activities Subscale, WOMAC VAS Score (Patient 9032, second batch active drug kits, Week 12): 2.5 mm
- WOMAC Difficulty Performing Daily Activities Subscale Score [3]: 64.5
- WOMAC Difficulty Performing Daily Activities Subscale Score [4]: 66.8
